The record followed here is ChEMBL document CHEMBL3612018, “Discovery of a Potent and Selective ROMK Inhibitor with Pharmacokinetic Properties Suitable for Preclinical Evaluation” (ACS Med Chem Lett, 2015).

The species entered for data set [1] is Rattus norvegicus. Conditions: in vivo, po, 2 mg/kg.
The species named for data set [2] is Rattus norvegicus. The following applies: in vivo, iv, 1 mg/kg.
For data set [3], the species on record is Rattus norvegicus. Conditions: in vivo, iv, 0.5 mg/kg.
Data set [4] can be described thus: in vivo. The following applies: Sprague-Dawley, rat.
Data set [5] in a line: in vivo. The following applies: Sprague-Dawley, rat, po, 2 mg/kg.
A short description of data set [6]: in vivo. The following applies: Sprague-Dawley, rat. The source holds these as a separate data set.

The clearance is the rate of elimination divided by the concentration. As for `O=C1OCc2cc(CCN3CCN(C(=O)Cc4ccc(-n5cnnn5)cc4)CC3)ccc21`, in data set [1], the AUC/dose came out at 0.34 µM·kg·h/mg. For the same compound, the clearance in data set [2] was 40 mL/min/kg.
Broadly, the half-life is the time needed for the level to fall by half in the phase considered. Higher therefore signals slow decline. For orientation: bioavailability means the share of a dose that reaches the circulation, judged against a reference dose that is usually intravenous. A higher bioavailability goes with much systemic uptake. As for `COc1cc(CCN2CCN(CC(O)c3ccc4c(c3C)COC4=O)CC2)ccc1C#N` (stereo not drawn), the clearance in data set [3] was found to be 33 mL/min/kg. In addition, in data set [1], the AUC/dose worked out at 0.46 µM·kg·h/mg. In data set [4], this compound showed a half-life of 0.83 h. The compound further showed a bioavailability in data set [5] of 39%.
The compound `COc1cc(C(O)CN2CCN(CCc3ccc4c(c3C)COC4=O)CC2)ccc1C#N` (stereo not drawn) came in with a clearance in data set [3] of 40 mL/min/kg. The same compound registered an AUC/dose in data set [1] of 0.35 µM·kg·h/mg. The same compound gave a half-life in data set [4] of 1.3 h. In data set [5], the bioavailability turned out to be 37%.
With `COc1cc(C(O)CN2CCN(CCc3ccc4c(c3C)COC4=O)CC2)ncc1C#N` (stereo not drawn), the clearance in data set [3] was 40 mL/min/kg. The AUC/dose in data set [1] stood at 0.74 µM·kg·h/mg. The compound also gave a half-life in data set [4] of 1.5 h. This compound returned a bioavailability in data set [5] of 78%.
In data set [1], `Cc1nc(C(O)CN2CCN(C[C@H](O)c3ccc4c(c3C)COC4=O)CC2)ccc1C#N` (stereo in doubt; 35) had an AUC/dose of 1.3 µM·kg·h/mg. Besides, the clearance in data set [2] is 25 mL/min/kg. The compound further showed a bioavailability in data set [5] of 81%. The compound further had a half-life in data set [6] of 1.4 h.
